Test results: ChEMBL document CHEMBL6114960, “Discovery of First-in-Class FXR and HSD17B13 Dual Modulator for the Treatment of Metabolic Dysfunction-Associated Fatty Liver Disease” (J Med Chem, 2025)

Target: T1, Fatty acid-binding protein, liver (Homo sapiens, UniProt P07148)
T1 sequence (P07148 whole entry): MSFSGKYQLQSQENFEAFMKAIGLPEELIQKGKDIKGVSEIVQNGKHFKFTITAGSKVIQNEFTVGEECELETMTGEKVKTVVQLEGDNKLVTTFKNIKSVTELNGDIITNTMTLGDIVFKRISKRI
Assay: Inhibition of FABP1 (unknown origin)

IC50: 8.5 µM
Structure (SMILES): O=C(O)c1ccc(-c2ccc(OCc3c(-c4c(Cl)cccc4Cl)noc3C3CC3)cc2)cc1
